This data set has as its system Hepatotoxicity. Description: Literature-mined public compounds from Greene et al multi-species hepatotoxicity modelling dataset.

With `CNNCc1ccc(C(=O)NC(C)C)cc1.Cl` [PROCARBAZINE HYDROCHLORIDE], the Hepatotoxicity entry is given as “HH: Evidence of human hepatotoxicity”. As to `CN(C)C(=N)N=C(N)N` [METFORMIN], the Hepatotoxicity entry is on record as “WE: Weak evidence (<10 case reports) of human hepatotoxicity”. With `Cc1ccccc1N1C(=O)c2cc(S(N)(=O)=O)c(Cl)cc2NC1C` (centres undefined) [METOLAZONE] the entry was “HH: Evidence of human hepatotoxicity”. The same measure for `O=[N+]([O-])O[C@H]1CO[C@H]2[C@@H]1OC[C@H]2O[N+](=O)[O-]` [ISOSORBIDE DINITRATE]: “NE: No evidence of hepatotoxicity in any species”; for `CC1=CC(=O)c2ccccc2C1=O` [MENADIONE]: “AH: Evidence for animal hepatotoxicity but not tested in humans”. With `Nc1ncn([C@@H]2O[C@H](CO)[C@@H](O)[C@H]2O)c(=O)n1` [AZACITIDINE] the entry was “HH: Evidence of human hepatotoxicity”; with `CC(=O)Nc1ccc2c(c1)Cc1ccccc1-2` [2-ACETYLAMINOFLUORENE], “HH: Evidence of human hepatotoxicity”.

Consider `C=C[C@H]1C[N@@]2CC[C@H]1C[C@H]2[C@H](O)c1ccnc2ccc(OC)cc12` [QUININE], for which the Hepatotoxicity entry was “HH: Evidence of human hepatotoxicity”. The same measure for `N=C(N)NCCN1CCCCCCC1.N=C(N)NCCN1CCCCCCC1.O=S(=O)(O)O` [GUANETHIDINE SULFATE]: “HH: Evidence of human hepatotoxicity”; for `CCCCNc1cc(C(=O)O)cc(S(N)(=O)=O)c1Oc1ccccc1` [BUMETANIDE]: “HH: Evidence of human hepatotoxicity”.

`CC(C)c1cccc(C(C)C)c1O` [PROPOFOL]: the Hepatotoxicity result was “NE: No evidence of hepatotoxicity in any species”. With `CCc1c(C)[nH]c2c1C(=O)C(CN1CCOCC1)CC2.Cl` (centres undefined) [MOLINDONE HYDROCHLORIDE] the entry was “HH: Evidence of human hepatotoxicity”; with `Cc1ccc(C)c(OCCCC(C)(C)C(=O)O)c1` [GEMFIBROZIL], “HH: Evidence of human hepatotoxicity”; with `CC(=N)S` [THIOACETAMIDE], “AH: Evidence for animal hepatotoxicity but not tested in humans”.

For the compound `CC(C)C(=O)Nc1ccc([N+](=O)[O-])c(C(F)(F)F)c1` [FLUTAMIDE], the Hepatotoxicity result was “HH: Evidence of human hepatotoxicity”. With `CCOC(=O)Nc1ccc2c(c1)N(C(=O)CCN1CCOCC1)c1ccccc1S2.Cl` [MORICIZINE HYDROCHLORIDE] the entry was “HH: Evidence of human hepatotoxicity”; with `CS(=O)(=O)OCCOS(C)(=O)=O` [ETHANE DIMETHANE SULFONATE], “AH: Evidence for animal hepatotoxicity but not tested in humans”; with `Clc1ccc(CCC(Cn2ccnc2)Sc2c(Cl)cccc2Cl)cc1.O=[N+]([O-])O` (centres undefined) [BUTOCONAZOLE NITRATE], “NE: No evidence of hepatotoxicity in any species”. The same measure for `NCCC(O)(P(=O)(O)O)P(=O)(O)O` [PAMIDRONIC ACID]: “NE: No evidence of hepatotoxicity in any species”; for `CC(C)OC(=O)C(C)(C)Oc1ccc(C(=O)c2ccc(Cl)cc2)cc1` [FENOFIBRATE]: “HH: Evidence of human hepatotoxicity”; for `CN(C)c1ccc(O)c2c1C[C@H]1C[C@H]3[C@H](N(C)C)C(O)=C(C(N)=O)C(=O)[C@@]3(O)C(O)=C1C2=O.Cl` [MINOCYCLINE HYDROCHLORIDE]: “HH: Evidence of human hepatotoxicity”. In the case of `CC(=O)Nc1nnc(S(N)(=O)=O)s1` [ACETAZOLAMIDE], the Hepatotoxicity result is given as “HH: Evidence of human hepatotoxicity”.

Take `Cc1ccc2cc3c(ccc4ccccc43)c3c2c1CC3` [3-METHYLCHOLANTHRENE]: the Hepatotoxicity entry was “HH: Evidence of human hepatotoxicity”.

On to `C[C@]12C=CC(=O)C=C1CC[C@@H]1[C@@H]2C(=O)C[C@@]2(C)[C@H]1CC[C@]2(O)C(=O)CO` [PREDNISONE], for which the Hepatotoxicity entry is “WE: Weak evidence (<10 case reports) of human hepatotoxicity”. The same measure for `S=C=Nc1ccccc1` [PHENYLISOTHIOCYANATE]: “AH: Evidence for animal hepatotoxicity but not tested in humans”; for `O=C1CC[C@@]2(O)[C@H]3Cc4ccc(O)c5c4[C@@]2(CCN3CC2CC2)[C@H]1O5` [NALTREXONE]: “HH: Evidence of human hepatotoxicity”; for `NNCCc1ccccc1` [PHENELZINE]: “NE: No evidence of hepatotoxicity in any species”. The same measure for `COC(=O)C1=C(C)NC(C)=C(C(=O)OCCN(C)Cc2ccccc2)C1c1cccc([N+](=O)[O-])c1.Cl` (centres undefined) [NICARDIPINE HYDROCHLORIDE]: “HH: Evidence of human hepatotoxicity”; for `CC(C)(O/N=C(\C(=O)N[C@@H]1C(=O)N2C(C(=O)[O-])=C(C[n+]3ccccc3)CS[C@H]12)c1csc(N)n1)C(=O)O` [CEFTAZIDIME]: “WE: Weak evidence (<10 case reports) of human hepatotoxicity”. The same measure for `Cc1cc(C(=O)NNCc2ccccc2)no1` [ISOCARBOXAZID]: “WE: Weak evidence (<10 case reports) of human hepatotoxicity”; for `N[C@@H]1[C@H]2CN(c3nc4c(cc3F)c(=O)c(C(=O)O)cn4-c3ccc(F)cc3F)C[C@@H]12` [TROVAFLOXACIN]: “HH: Evidence of human hepatotoxicity”.

On to `CN(C)/N=N/c1[nH]cnc1C(N)=O` [DACARBAZINE], for which the Hepatotoxicity entry is given as “HH: Evidence of human hepatotoxicity”.

Turning to `CC(C)COCC(CN(Cc1ccccc1)c1ccccc1)N1CCCC1.Cl.O` (centres undefined) [BEPRIDIL HYDROCHLORIDE], the Hepatotoxicity result is “HH: Evidence of human hepatotoxicity”. The same measure for `O=C(O)c1cc(=O)c2c(OCC(O)COc3cccc4oc(C(=O)O)cc(=O)c34)cccc2o1` [CROMOLYN]: “NE: No evidence of hepatotoxicity in any species”. With `CCOc1ccc2ccccc2c1C(=O)N[C@@H]1C(=O)N2[C@@H]1SC(C)(C)[C@@H]2C(=O)[O-].O.[Na+]` [NAFCILLIN SODIUM] the entry was “WE: Weak evidence (<10 case reports) of human hepatotoxicity”. For the compound `C=C1CC[C@H](O)C/C1=C/C=C1\CCC[C@]2(C)[C@@H]([C@H](C)/C=C/[C@H](C)C(C)C)CC[C@@H]12` [ERGOCALCIFEROL], the Hepatotoxicity result is listed as “NE: No evidence of hepatotoxicity in any species”. Turning to `C[C@H]1O[C@@H](O[C@H]2[C@@H](O)C[C@H](O[C@H]3[C@@H](O)C[C@H](O[C@H]4CC[C@@]5(C)[C@H](CC[C@@H]6[C@@H]5C[C@@H](O)[C@]5(C)[C@@H](C7=CC(=O)OC7)CC[C@]65O)C4)O[C@@H]3C)O[C@@H]2C)C[C@H](O)[C@@H]1O` [DIGOXIN], the Hepatotoxicity result is given as “NE: No evidence of hepatotoxicity in any species”.

As for `Sc1ncnc2nc[nH]c12` [MERCAPTOPURINE ANHYDROUS], the Hepatotoxicity entry was “HH: Evidence of human hepatotoxicity”.

Take `CCC1(c2ccccc2)CCC(=O)NC1=O` (centres undefined) [GLUTETHIMIDE]: the Hepatotoxicity entry is “HH: Evidence of human hepatotoxicity”. With `CCCCc1nc(Cl)c(CO)n1Cc1ccc(-c2ccccc2-c2nn[nH]n2)cc1` [LOSARTAN] the entry was “HH: Evidence of human hepatotoxicity”. The same measure for `CC(C)(C)c1ccc(C(O)CCCN2CCC(C(O)(c3ccccc3)c3ccccc3)CC2)cc1` (centres undefined) [TERFENADINE]: “NE: No evidence of hepatotoxicity in any species”; for `Cn1cnc([N+](=O)[O-])c1Sc1ncnc2nc[nH]c12` [AZATHIOPRINE]: “HH: Evidence of human hepatotoxicity”; for `CN(C)CCCN1c2ccccc2CCc2ccccc21.Cl` [IMIPRAMINE HYDROCHLORIDE]: “HH: Evidence of human hepatotoxicity”. The same measure for `Cn1c(=O)c2[nH]cnc2n(C)c1=O.O` [THEOPHYLLINE]: “NE: No evidence of hepatotoxicity in any species”.

For the compound `Clc1cc2c(cc1Cl)Oc1cc(Cl)c(Cl)cc1O2` [2,3,7,8-TETRACHLORODIBENZO-P-DIOXIN], the Hepatotoxicity result was “AH: Evidence for animal hepatotoxicity but not tested in humans”. With `CCCCCCCCCCCCCCCC(=O)OC/C=C(C)/C=C/C=C(C)/C=C/C1=C(C)CCCC1(C)C` [VITAMIN A PALMITATE] the entry was “AH: Evidence for animal hepatotoxicity but not tested in humans”. The same measure for BISMUTH SUBSALICYLATE: “NE: No evidence of hepatotoxicity in any species”.

Turning to `CCC(=O)OCC(=O)[C@@]1(OC(=O)CC)[C@@H](C)C[C@H]2[C@@H]3CCC4=CC(=O)C=C[C@]4(C)[C@@]3(Cl)[C@@H](O)C[C@@]21C` [BECLOMETHASONE DIPROPIONATE], the Hepatotoxicity result is given as “NE: No evidence of hepatotoxicity in any species”. With `CN1C(=O)OC(C)(C)C1=O` [TRIMETHADIONE] the entry was “HH: Evidence of human hepatotoxicity”; with `CNCCc1ccccn1.Cl.Cl` [BETAHISTINE HYDROCHLORIDE], “HH: Evidence of human hepatotoxicity”; with `CCOC(=O)C1(c2ccccc2)CCN(CCc2ccc(N)cc2)CC1.Cl` [ANILERIDINE HYDROCHLORIDE], “NE: No evidence of hepatotoxicity in any species”. The same measure for `C[C@]12CC[C@@H]3c4ccc(O)cc4CC[C@H]3[C@@H]1CC[C@@H]2O` [ESTRADIOL]: “WE: Weak evidence (<10 case reports) of human hepatotoxicity”. With `O=c1[nH]c2ccccc2n1C1CCN(CCCC(c2ccc(F)cc2)c2ccc(F)cc2)CC1` [PIMOZIDE] the entry was “NE: No evidence of hepatotoxicity in any species”; with `CC1=C(CC(=O)O)c2cc(F)ccc2/C1=C\c1ccc([S+](C)[O-])cc1` (centres undefined), “HH: Evidence of human hepatotoxicity”. With `CC1=C(C(=O)O)N2C(=O)[C@@H](NC(=O)[C@H](N)c3ccc(O)cc3)[C@H]2SC1` [CEFADROXIL], the Hepatotoxicity entry is on record as “HH: Evidence of human hepatotoxicity”. With `C=C(C)[C@H]1Cc2c(ccc3c2O[C@@H]2COc4cc(OC)c(OC)cc4[C@@H]2C3=O)O1` [ROTENONE], the Hepatotoxicity result was “AH: Evidence for animal hepatotoxicity but not tested in humans”. Regarding `COC1=CC(=O)C[C@@H](C)[C@]12Oc1c(Cl)c(OC)cc(OC)c1C2=O` [GRISEOFULVIN], the Hepatotoxicity result is on record as “HH: Evidence of human hepatotoxicity”. In the case of `O=[As][As+](=O)[O-]` (centres undefined) [ARSENIC TRIOXIDE], the Hepatotoxicity result was “HH: Evidence of human hepatotoxicity”. The same measure for `OCC(S)CS` (centres undefined) [DIMERCAPROL]: “HH: Evidence of human hepatotoxicity”.
